# Assay results reported in PMC5607274, “An iterative compound screening contest method for identifying target protein inhibitors using the tyrosine-protein kinase Yes” (Scientific Reports, 2017).
# Target: T1, human recombinant Yes [a.a. 2–543 (end)] (Homo sapiens, UniProt P07947)
# T1 construct: human recombinant Yes [a.a; 2–543 (end)]; purchased BPS Bioscience 40488
# Assay: ADP-Glo kinase assay, inhibition rates of Yes phosphorylation activity (first and second screening)
# Format: biochemical
# Details: first screening; mean of n = 4 wells; 10 μmol L−1 compound
# In short: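 Hits from a first pass were rescreened after re-dissolution from fresh powder. The first pass reported the mean inhibition rate of quadruplicate wells per compound. Activity was that of recombinant human Yes [a.a. 2–543] kinase, read out with the ADP-Glo ADP-detection method.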
# T1 sequence (P07947 2-543): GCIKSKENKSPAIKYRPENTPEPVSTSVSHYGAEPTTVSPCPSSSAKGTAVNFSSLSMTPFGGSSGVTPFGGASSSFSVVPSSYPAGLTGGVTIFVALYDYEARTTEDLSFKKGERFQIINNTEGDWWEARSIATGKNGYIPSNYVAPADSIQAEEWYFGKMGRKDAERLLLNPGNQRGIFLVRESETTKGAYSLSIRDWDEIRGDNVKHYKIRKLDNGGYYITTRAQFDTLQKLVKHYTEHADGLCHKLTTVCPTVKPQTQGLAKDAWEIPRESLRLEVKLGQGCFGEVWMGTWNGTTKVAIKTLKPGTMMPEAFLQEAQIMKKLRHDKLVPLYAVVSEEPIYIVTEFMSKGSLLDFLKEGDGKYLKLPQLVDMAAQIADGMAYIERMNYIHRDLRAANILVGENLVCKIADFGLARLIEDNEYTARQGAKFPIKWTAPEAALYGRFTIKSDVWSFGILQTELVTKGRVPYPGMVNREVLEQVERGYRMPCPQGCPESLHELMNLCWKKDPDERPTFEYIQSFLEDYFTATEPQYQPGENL
row,First screening IR (inhibition rate) [%],SMILES
1,-1,Cl.Fc1ccccc1-c1cc(-c2ccccc2)nc2ccc(Cl)cc12 [Compound Z48955825]
2,12,Cc1ccc(-c2cc(-c3ccccc3F)c3cc(Cl)ccc3n2)cc1.Cl [Compound Z48955827]
3,3,Cl.N#Cc1ccc(-c2cc(-c3ccccc3F)c3cc(Cl)ccc3n2)cc1 [Compound Z48955841]
4,3,Cc1c(-c2ccc(O)cc2)nc2ccc(Cl)cc2c1-c1ccccc1F.Cl [Compound Z48955845]
5,-6,Cc1cc(C)nc(N/N=C/c2ccc3ncccc3c2)n1 [Compound Z49539423]
6,10,COc1cc(/C=N/NC(=O)c2cccnc2)ccc1OC(=O)c1cccnc1 [Compound Z49575448]
7,-13,Oc1cccc(/C=N/Nc2ccnc3cc(Cl)ccc23)c1 [Compound Z49625857]
8,9,CCOc1cc(/C=N/Nc2ccnc3cc(Cl)ccc23)ccc1O [Compound Z49625899]
9,26,COc1ccc(/C=N/Nc2ccnc3cc(Cl)ccc23)cc1O [Compound Z49625943]
10,-10,COc1cc(/C=N/Nc2ccnc3cc(Cl)ccc23)ccc1OC(F)F [Compound Z49626092]
11,-1,COc1cc(/C=N/NC(=O)c2cc(-c3cccnc3)nc3ccccc23)ccc1OCc1ccc(Cl)cc1 [Compound Z49638448]
12,13,COc1cc(/C=N/Nc2ncnc3scc(-c4ccccc4)c23)ccc1O [Compound Z49889617]
13,21,COc1cc(/C=N/Nc2ncnc3sc(C)c(C)c23)ccc1O [Compound Z49890548]
14,5,Cc1sc2ncnc(N/N=C/c3cccc(Br)c3)c2c1C [Compound Z49890557]
15,14,Cc1sc2ncnc(N/N=C/c3cccc(O)c3)c2c1C [Compound Z49890739]
16,3,Cc1cccc(/C=N/Nc2ncnc3sc(C)c(C)c23)c1 [Compound Z49890788]
17,4,COc1ccc(/C=N/Nc2ncnc3sc(C)c(C)c23)cc1O [Compound Z49890825]
18,34,COc1cc(/C=N/Nc2ncnc3sc(-c4ccccc4)cc23)cc(OC)c1OC [Compound Z49894862]
19,3,COc1ccc2c(C)cc(N/N=C/c3ccncc3)nc2c1 [Compound Z50018323]

# Further lines, the compound ahead of its results:
row,SMILES,First screening IR (inhibition rate) [%]
1,O=C(O)c1cccc(N/N=C/c2ccc(N(c3ccccc3)c3ccccc3)cc2)c1 [Compound Z49584790],18
2,CCn1c(O)c(N=Nc2ccc([N+](=O)[O-])cc2S(=O)(=O)Nc2ccc(C)cc2C)c2ccccc21 [Compound Z49643067],44
3,O=S(=O)(N/N=C/c1ccc(N(c2ccccc2)c2ccccc2)cc1)c1ccc(Br)cc1 [Compound Z49646816],27
4,Oc1[nH]c2ccc(Br)cc2c1N=Nc1ccccn1 [Compound Z49660185],-9
5,Cc1nc2ccccc2c(=O)n1/N=C/c1c2ccccc2cc2ccccc12 [Compound Z49732101],2
6,Cc1sc2ncnc(N/N=C/c3ccncc3)c2c1C [Compound Z49890729],3
7,CCn1c(-c2ccncc2)nc2c1c(=O)[nH]c(=O)n2Cc1ccccc1 [Compound Z50138431],-3
8,CCCCCn1c(-c2ccc(Sc3ccc(C)cc3)c([N+](=O)[O-])c2)nc2c1c(=O)[nH]c(=O)n2CCCC [Compound Z50141536],-20
9,O=C(OCc1nc(-c2cccs2)no1)c1c(F)cccc1F [Compound Z51088101],8
10,Cc1onc(-c2c(F)cccc2Cl)c1C(=O)OCc1nc(-c2cccs2)no1 [Compound Z51122297],20
11,O=C(OCc1nc(-c2cccs2)no1)c1ccc2ccccc2n1 [Compound Z51170832],19
12,O=C(OCc1nc(-c2cccs2)no1)c1c(F)cccc1Cl [Compound Z51180604],8
13,COc1ccccc1-c1nnc(SCC(=O)c2ccc(NC(C)=O)cc2F)n1-c1ccccc1 [Compound Z51187459],0
14,Cc1nnc(COC(=O)c2cc(-c3ccccc3)nc3c2cnn3C(C)C)o1 [Compound Z51550903],-3
15,O=C(CCn1[nH]c(=O)ccc1=O)Nc1ccc(-n2cnnn2)cc1 [Compound Z51737757],14
16,NC(=O)c1ccc(C(=O)N2CCN(c3ccccn3)CC2)cc1 [Compound Z51750245],0
17,CC(C)n1ncc2c(C(=O)N(C)CC(=O)Nc3ccc(F)c(F)c3F)cc(-c3ccccc3)nc21 [Compound Z51761022],12

row,SMILES,First screening IR (inhibition rate) [%]
1,Cc1c(C(=O)NCCOc2ccccc2)[nH]c2c1C(=O)CCC2 [Compound Z51800409],4
2,CC(C)n1ncc2c(C(=O)Nc3ccccc3)cc(-c3ccccc3)nc21 [Compound Z51820408],-10
3,Cc1c(C(=O)NCCOc2ccccc2F)[nH]c2c1C(=O)CCC2 [Compound Z51995316],36
4,Cc1cc(C)n(CCCNC(=O)c2[nH]c3c(c2C)C(=O)CCC3)n1 [Compound Z51995634],3
5,Cc1c(C(=O)NCCSc2ccc(Br)cc2)[nH]c2c1C(=O)CCC2 [Compound Z51996046],8
6,CC(C)n1ncc2c(C(=O)N3CCN(c4ccc(F)cc4)CC3)cc(-c3ccccc3)nc21 [Compound Z52005969],27
7,COc1cc(NC(=O)c2cc(-c3ccccc3)nc3c2cnn3C(C)C)cc(OC)c1 [Compound Z52023681],-11
8,Cc1nc(-c2cccc(NC(=O)CC(NC(N)=O)c3ccc(Cl)cc3)c2)cs1 (stereo not drawn) [Compound Z52058293],-6
9,O=S(=O)(c1cccc(Cl)c1Cl)N1CCN(Cc2nc(-c3ccc(F)cc3)no2)CC1 [Compound Z52670207],-5
10,CN(CC(=O)N1N=C(c2ccco2)CC1c1cccs1)Cc1nc2ccccc2c(=O)[nH]1 (stereo not drawn) [Compound Z52671252],-3
11,CN(CC(=O)NC(=O)Nc1ccccc1F)C1CCCc2ccccc21 (stereo not drawn) [Compound Z52744280],-6
12,CCn1c(-c2ccccc2)c(C(=O)CSc2nnc(-c3cccnc3)n2N)c2ccccc21 [Compound Z54072868],-13
13,CC(OC(=O)c1ccc(-c2ccc(O)cc2)cc1)C(=O)c1ccc(F)c(F)c1 (stereo not drawn) [Compound Z54379277],27
14,CN1CCc2nc(NC(=O)CCC(=O)c3ccccc3)sc2C1 [Compound Z54410536],-2
15,COC(=O)c1ccc2c(=O)[nH]c(COC(=O)Cc3ccsc3)nc2c1 [Compound Z54469331],2
16,CN1/C(=C\C(=O)CN2C(=O)NC3(CCCc4sccc43)C2=O)C(C)(C)c2ccccc21 (stereo not drawn) [Compound Z54813762],-20

# Same assay, conditions: second screening, dissolved from fresh powder; n = 4; 10 μmol L−1 compound
row,Second screening IR (inhibition rate) [%],SMILES
1,-17,COc1ccc(/C=N/Nc2ccnc3cc(Cl)ccc23)cc1O [Compound Z49625943]
2,22,COc1cc(/C=N/Nc2ncnc3sc(-c4ccccc4)cc23)cc(OC)c1OC [Compound Z49894862]
